{"source": "ChEMBL document CHEMBL5696441", "about": "(Nat Chem Biol, 2011)", "key": {"[1]": {"system": "Tyrosine-protein kinase ABL1 (Homo sapiens), P00519 [M351T]", "assay": "Inhibition of ABL1 M351T mutant (unknown origin) assessed as remaining activity at 1 uM by Kinome scan method relative to control; call rule not given here"}, "[2]": {"biological_target": "5'-AMP-activated protein kinase catalytic subunit alpha-1 (Homo sapiens) (UniProt Q13131)", "assay": "Inhibition of AMPK-alpha1 (unknown origin) assessed as remaining activity at 1 uM by Kinome scan method relative to control"}, "[3]": {"biological_target": "Tyrosine-protein kinase receptor UFO (Homo sapiens) (UniProt P30530)", "assay": "Inhibition of AXL (unknown origin) assessed as remaining activity at 1 uM by Kinome scan method relative to control"}, "[4]": {"biological_target": "Dual specificity protein kinase CLK1 (Homo sapiens) (UniProt P49759)", "assay": "Inhibition of CLK1 (unknown origin) assessed as remaining activity at 1 uM by Kinome scan method relative to control"}, "[5]": {"biological_target": "Serine/threonine-protein kinase 17B (Homo sapiens) (UniProt O94768)", "assay": "Inhibition of DRAK2 (unknown origin) assessed as remaining activity at 1 uM by Kinome scan method relative to control"}, "[6]": {"biological_target": "Mitogen-activated protein kinase 9 (Homo sapiens) (UniProt P45984)", "sequence (P45984 whole entry, looked up)": "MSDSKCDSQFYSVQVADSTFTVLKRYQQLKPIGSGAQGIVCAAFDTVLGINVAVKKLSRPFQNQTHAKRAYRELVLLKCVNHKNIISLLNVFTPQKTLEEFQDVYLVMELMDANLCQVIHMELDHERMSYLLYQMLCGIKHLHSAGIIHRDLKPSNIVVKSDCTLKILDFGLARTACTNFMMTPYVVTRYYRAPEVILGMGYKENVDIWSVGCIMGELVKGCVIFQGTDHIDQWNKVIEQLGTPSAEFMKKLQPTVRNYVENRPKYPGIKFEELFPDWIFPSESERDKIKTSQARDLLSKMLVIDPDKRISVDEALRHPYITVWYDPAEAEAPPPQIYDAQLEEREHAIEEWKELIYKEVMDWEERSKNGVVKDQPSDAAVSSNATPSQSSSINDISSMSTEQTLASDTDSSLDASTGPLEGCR", "assay": "Inhibition of JNK2 (unknown origin) assessed as remaining activity at 1 uM by Kinome scan method relative to control"}, "[7]": {"biological_target": "MAP kinase-activated protein kinase 5 (Homo sapiens) (UniProt Q8IW41)", "sequence (Q8IW41 whole entry)": "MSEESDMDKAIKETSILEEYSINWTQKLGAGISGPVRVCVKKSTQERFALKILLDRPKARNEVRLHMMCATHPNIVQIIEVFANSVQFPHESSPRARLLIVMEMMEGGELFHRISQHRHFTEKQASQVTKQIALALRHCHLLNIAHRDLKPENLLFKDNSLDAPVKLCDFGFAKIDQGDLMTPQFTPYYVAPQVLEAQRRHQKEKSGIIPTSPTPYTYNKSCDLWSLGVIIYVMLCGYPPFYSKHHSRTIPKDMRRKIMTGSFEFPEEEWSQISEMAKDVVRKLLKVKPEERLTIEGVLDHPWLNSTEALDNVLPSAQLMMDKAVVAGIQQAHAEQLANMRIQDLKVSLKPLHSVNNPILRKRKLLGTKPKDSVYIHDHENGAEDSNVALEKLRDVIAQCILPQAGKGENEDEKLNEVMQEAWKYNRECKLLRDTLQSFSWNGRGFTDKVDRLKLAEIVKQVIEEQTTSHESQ", "assay": "Inhibition of MAPKAPK5 (unknown origin) assessed as remaining activity at 1 uM by Kinome scan method relative to control"}, "[8]": {"system": "Phosphatidylinositol 4,5-bisphosphate 3-kinase catalytic subunit alpha isoform (Homo sapiens), P42336 [Q546K]", "sequence (P42336 whole entry Q546K, canonical isoform)": "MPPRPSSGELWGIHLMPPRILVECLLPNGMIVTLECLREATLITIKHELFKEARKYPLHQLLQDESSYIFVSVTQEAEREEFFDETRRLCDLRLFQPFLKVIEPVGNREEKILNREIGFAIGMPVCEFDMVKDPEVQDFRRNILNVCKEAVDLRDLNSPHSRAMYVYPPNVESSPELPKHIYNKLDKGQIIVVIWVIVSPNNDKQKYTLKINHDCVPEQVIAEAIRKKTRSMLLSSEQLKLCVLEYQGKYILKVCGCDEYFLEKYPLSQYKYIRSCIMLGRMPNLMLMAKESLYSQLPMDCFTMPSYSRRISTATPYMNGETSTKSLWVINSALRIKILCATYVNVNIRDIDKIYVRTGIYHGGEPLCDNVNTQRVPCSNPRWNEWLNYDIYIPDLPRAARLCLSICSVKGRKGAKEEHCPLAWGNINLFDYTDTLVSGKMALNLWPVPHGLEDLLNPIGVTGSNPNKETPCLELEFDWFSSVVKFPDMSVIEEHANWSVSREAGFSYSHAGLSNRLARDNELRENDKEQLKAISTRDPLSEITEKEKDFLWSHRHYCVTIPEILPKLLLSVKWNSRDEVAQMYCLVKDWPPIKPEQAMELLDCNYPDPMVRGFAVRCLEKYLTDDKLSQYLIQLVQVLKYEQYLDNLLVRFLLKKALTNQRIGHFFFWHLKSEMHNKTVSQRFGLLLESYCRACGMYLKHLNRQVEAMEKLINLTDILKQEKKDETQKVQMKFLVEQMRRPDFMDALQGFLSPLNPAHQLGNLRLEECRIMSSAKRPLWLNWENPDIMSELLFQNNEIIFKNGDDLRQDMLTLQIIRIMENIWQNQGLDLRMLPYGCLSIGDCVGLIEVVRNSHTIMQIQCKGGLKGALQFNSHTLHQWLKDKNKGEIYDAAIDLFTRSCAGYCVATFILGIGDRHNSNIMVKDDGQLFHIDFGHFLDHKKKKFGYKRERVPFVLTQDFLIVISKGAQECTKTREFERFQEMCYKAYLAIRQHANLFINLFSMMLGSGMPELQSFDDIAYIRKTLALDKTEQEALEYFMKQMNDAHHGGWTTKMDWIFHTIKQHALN", "assay": "Inhibition of PIK3CA Q546K mutant (unknown origin) assessed as remaining activity at 1 uM by Kinome scan method relative to control"}, "[9]": {"biological_target": "Serine/threonine-protein kinase SIK3 (Homo sapiens) (UniProt Q9Y2K2)", "assay": "Inhibition of QSK (unknown origin) assessed as remaining activity at 1 uM by Kinome scan method relative to control"}, "[10]": {"biological_target": "NUAK family SNF1-like kinase 2 (Homo sapiens) (UniProt Q9H093)", "assay": "Inhibition of SNARK (unknown origin) assessed as remaining activity at 1 uM by Kinome scan method relative to control"}, "[11]": {"biological_target": "Mitogen-activated protein kinase kinase kinase 7 (Homo sapiens) (UniProt O43318)", "assay": "Inhibition of TAK1 (unknown origin) assessed as remaining activity at 1 uM by Kinome scan method relative to control"}, "[12]": {"biological_target": "High affinity nerve growth factor receptor (Homo sapiens) (UniProt P04629)", "assay": "Inhibition of TRKA (unknown origin) assessed as remaining activity at 1 uM by Kinome scan method relative to control"}, "[13]": {"biological_target": "Dual specificity protein kinase TTK (Homo sapiens) (UniProt P33981)", "sequence (P33981 whole entry)": "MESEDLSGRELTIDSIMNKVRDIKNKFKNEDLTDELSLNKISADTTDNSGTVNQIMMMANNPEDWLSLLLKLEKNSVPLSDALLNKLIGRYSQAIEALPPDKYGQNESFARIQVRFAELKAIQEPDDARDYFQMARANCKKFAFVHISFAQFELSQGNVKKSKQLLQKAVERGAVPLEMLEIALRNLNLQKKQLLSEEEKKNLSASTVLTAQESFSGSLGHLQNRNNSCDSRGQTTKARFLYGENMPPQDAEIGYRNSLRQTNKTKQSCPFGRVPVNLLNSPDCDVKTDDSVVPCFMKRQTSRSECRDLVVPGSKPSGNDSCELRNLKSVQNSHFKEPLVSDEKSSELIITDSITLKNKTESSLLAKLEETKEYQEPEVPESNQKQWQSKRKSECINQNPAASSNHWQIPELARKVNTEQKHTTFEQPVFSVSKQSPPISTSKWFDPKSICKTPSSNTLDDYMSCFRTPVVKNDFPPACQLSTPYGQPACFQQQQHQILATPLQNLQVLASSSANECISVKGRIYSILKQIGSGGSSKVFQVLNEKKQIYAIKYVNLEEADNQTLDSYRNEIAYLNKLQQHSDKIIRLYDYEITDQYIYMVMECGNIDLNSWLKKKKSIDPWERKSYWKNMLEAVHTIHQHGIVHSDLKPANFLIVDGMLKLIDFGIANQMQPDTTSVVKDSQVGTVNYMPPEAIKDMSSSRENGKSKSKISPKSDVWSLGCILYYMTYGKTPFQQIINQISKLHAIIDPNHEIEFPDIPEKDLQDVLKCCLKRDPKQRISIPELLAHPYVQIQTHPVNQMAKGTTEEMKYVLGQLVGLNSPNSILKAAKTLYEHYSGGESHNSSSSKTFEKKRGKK", "assay": "Inhibition of TTK (unknown origin) assessed as remaining activity at 1 uM by Kinome scan method relative to control"}, "[14]": {"biological_target": "Serine/threonine-protein kinase ULK2 (Homo sapiens) (UniProt Q8IYT8)", "assay": "Inhibition of ULK2 (unknown origin) assessed as remaining activity at 1 uM by Kinome scan method relative to control"}, "[15]": {"biological_target": "Vascular endothelial growth factor receptor 2 (Homo sapiens) (UniProt P35968)", "sequence (P35968 whole entry)": "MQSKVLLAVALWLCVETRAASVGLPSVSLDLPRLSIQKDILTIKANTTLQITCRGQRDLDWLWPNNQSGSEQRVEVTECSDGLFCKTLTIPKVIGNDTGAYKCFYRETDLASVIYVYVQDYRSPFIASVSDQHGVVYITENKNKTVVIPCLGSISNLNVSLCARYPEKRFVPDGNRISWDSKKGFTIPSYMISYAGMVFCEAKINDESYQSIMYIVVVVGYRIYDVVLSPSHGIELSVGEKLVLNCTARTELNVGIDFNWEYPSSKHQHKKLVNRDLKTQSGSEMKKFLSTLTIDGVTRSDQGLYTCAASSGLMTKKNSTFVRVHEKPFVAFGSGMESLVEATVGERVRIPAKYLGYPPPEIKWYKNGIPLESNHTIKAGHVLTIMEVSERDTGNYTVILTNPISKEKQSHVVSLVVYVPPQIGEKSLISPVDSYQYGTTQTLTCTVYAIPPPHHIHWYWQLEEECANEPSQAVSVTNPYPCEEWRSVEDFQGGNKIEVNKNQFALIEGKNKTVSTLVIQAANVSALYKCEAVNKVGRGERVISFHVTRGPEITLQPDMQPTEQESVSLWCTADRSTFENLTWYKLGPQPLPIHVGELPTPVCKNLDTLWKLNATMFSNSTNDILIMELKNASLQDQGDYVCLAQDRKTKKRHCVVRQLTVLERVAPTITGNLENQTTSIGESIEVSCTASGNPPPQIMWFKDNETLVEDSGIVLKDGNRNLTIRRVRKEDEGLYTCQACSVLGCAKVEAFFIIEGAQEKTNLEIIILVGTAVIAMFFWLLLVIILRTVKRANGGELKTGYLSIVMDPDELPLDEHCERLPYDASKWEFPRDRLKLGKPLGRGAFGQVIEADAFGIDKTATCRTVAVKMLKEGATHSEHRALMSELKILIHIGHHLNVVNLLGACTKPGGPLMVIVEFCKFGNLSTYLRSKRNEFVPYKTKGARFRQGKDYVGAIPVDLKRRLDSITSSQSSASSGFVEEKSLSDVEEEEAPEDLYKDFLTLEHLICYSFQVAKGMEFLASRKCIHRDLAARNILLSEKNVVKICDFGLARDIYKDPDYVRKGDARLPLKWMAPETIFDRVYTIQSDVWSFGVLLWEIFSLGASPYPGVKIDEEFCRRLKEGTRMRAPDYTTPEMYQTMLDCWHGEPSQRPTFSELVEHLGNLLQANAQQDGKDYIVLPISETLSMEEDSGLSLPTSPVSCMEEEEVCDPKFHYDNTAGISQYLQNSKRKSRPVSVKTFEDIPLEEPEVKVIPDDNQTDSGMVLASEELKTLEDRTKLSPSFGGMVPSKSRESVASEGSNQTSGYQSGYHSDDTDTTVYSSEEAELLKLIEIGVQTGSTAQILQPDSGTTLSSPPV", "assay": "Inhibition of VEGFR2 (unknown origin) assessed as remaining activity at 1 uM by Kinome scan method relative to control"}, "[16]": {"system": "Tyrosine-protein kinase ABL1 (Homo sapiens), P00519 [Y253F]", "assay": "Inhibition of human ABL1 Y253F mutant assessed as residual activity at 1 uM using Poly(Ala,Glu,Lys,Tyr)6:2:5:1 as substrate in presence of 33P-ATP by ProQinase assay relative to control"}, "[17]": {"biological_target": "ALK tyrosine kinase receptor (Homo sapiens) (UniProt Q9UM73)", "assay": "Inhibition of human ALK assessed as residual activity at 1 uM using PolyEY as substrate in presence of 33P-ATP by ProQinase assay relative to control"}, "[18]": {"biological_target": "T1, Calcium/calmodulin-dependent protein kinase type IV (Homo sapiens) (UniProt Q16566)", "T1 sequence (whole entry)": "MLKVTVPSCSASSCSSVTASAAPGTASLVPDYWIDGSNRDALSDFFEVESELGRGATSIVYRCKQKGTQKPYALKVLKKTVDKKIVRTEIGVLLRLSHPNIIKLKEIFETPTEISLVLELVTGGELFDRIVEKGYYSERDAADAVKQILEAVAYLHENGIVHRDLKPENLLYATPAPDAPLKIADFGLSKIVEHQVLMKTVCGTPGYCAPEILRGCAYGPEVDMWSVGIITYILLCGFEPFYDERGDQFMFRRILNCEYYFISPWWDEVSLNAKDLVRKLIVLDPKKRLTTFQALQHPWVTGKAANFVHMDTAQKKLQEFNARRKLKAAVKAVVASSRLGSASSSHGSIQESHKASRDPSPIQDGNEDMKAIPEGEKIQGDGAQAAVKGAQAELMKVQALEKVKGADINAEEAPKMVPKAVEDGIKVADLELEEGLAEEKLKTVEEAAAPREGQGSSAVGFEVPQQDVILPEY", "assay": "Inhibition of human CAMK4 assessed as residual activity at 1 uM using JUN as substrate in presence of 33P-ATP by ProQinase assay relative to control"}, "[19]": {"biological_target": "Casein kinase I isoform gamma-1 (Homo sapiens) (UniProt Q9HCP0)", "sequence (Q9HCP0 whole entry, looked up, canonical isoform)": "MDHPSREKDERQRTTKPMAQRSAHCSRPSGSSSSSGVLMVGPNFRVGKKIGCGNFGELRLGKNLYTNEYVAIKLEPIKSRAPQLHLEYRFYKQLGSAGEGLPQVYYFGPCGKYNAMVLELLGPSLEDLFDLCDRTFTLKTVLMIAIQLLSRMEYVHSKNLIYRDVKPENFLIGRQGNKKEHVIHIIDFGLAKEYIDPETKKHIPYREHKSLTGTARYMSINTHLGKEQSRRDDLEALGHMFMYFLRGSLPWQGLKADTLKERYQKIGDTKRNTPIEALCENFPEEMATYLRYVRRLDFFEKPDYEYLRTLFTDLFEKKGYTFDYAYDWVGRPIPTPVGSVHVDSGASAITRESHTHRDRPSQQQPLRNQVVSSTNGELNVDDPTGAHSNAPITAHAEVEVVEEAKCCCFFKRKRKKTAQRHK", "assay": "Inhibition of human CK1gamma1 assessed as residual activity at 1 uM using casein as substrate in presence of 33P-ATP by ProQinase assay relative to control"}, "[20]": {"system": "Hepatocyte growth factor receptor (Homo sapiens), P08581 [Y1230C]", "assay": "Inhibition of human MET Y1230C mutant assessed as residual activity at 1 uM using poly(Ala,Glu,Lys,Tyr)6:2:5:1 as substrate in presence of 33P-ATP by ProQinase assay relative to control"}, "[21]": {"biological_target": "Mitogen-activated protein kinase 11 (Homo sapiens) (UniProt Q15759)", "sequence (Q15759 whole entry)": "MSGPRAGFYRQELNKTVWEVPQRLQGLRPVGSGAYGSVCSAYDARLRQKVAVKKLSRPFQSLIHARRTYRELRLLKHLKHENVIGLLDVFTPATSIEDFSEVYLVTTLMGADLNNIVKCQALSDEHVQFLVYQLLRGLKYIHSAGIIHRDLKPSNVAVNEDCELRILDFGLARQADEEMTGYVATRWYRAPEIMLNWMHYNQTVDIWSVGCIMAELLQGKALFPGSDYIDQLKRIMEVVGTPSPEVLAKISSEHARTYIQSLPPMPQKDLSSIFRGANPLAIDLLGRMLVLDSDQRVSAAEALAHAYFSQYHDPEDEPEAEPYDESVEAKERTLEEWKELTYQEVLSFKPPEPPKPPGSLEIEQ", "assay": "Inhibition of human P38beta assessed as residual activity at 1 uM using ATF2 as substrate in presence of 33P-ATP by ProQinase assay relative to control"}, "[22]": {"biological_target": "Protein kinase C eta type (Homo sapiens) (UniProt P24723)", "assay": "Inhibition of human PKCeta assessed as residual activity at 1 uM using histon H2B as substrate in presence of 33P-ATP by ProQinase assay relative to control"}, "[23]": {"biological_target": "Serine/threonine-protein kinase 33 (Homo sapiens) (UniProt Q9BYT3)", "assay": "Inhibition of human STK33 assessed as residual activity at 1 uM using RBER-CHKtide as substrate in presence of 33P-ATP by ProQinase assay relative to control"}, "[24]": {"biological_target": "Testis-specific serine/threonine-protein kinase 2 (Homo sapiens) (UniProt Q96PF2)", "assay": "Inhibition of human TSK2 assessed as residual activity at 1 uM using RBER-CHKtide as substrate in presence of 33P-ATP by ProQinase assay relative to control"}, "[25]": {"assay": "Anti-inflammatory activity against human derived high respond PBMC cells assessed as inhibition in stimulated TARC chemokine release incubated for 2 hrs in the presence of LPS/SEB/aCD28 by Luminex based sandwich immunoassay", "type": "functional, cell-based"}}}
{"compound": "O=C1c2ccc(Nc3ccc(F)cc3F)cc2CCc2ccc(OC[C@H](O)CO)cc21", "note": "[Skepinone-L]", "values": [{"measurement": "Activity", "setting": "[1]", "value": 100, "unit": "%"}, {"measurement": "Activity", "setting": "[2]", "value": 98, "unit": "%"}, {"measurement": "Activity", "setting": "[3]", "value": 94, "unit": "%"}, {"measurement": "Activity", "setting": "[4]", "value": 99, "unit": "%"}, {"measurement": "Activity", "setting": "[5]", "value": 99, "unit": "%"}, {"measurement": "Activity", "setting": "[6]", "value": 100, "unit": "%"}, {"measurement": "Activity", "setting": "[7]", "value": 100, "unit": "%"}, {"measurement": "Activity", "setting": "[8]", "value": 100, "unit": "%"}, {"measurement": "Activity", "setting": "[9]", "value": 100, "unit": "%"}, {"measurement": "Activity", "setting": "[10]", "value": 100, "unit": "%"}, {"measurement": "Activity", "setting": "[11]", "value": 100, "unit": "%"}, {"measurement": "Activity", "setting": "[12]", "value": 88, "unit": "%"}, {"measurement": "Activity", "setting": "[13]", "value": 100, "unit": "%"}, {"measurement": "Activity", "setting": "[14]", "value": 100, "unit": "%"}, {"measurement": "Activity", "setting": "[15]", "value": 100, "unit": "%"}, {"measurement": "Activity", "setting": "[16]", "value": 88, "unit": "%"}, {"measurement": "Activity", "setting": "[17]", "value": 104, "unit": "%"}, {"measurement": "Activity", "setting": "[18]", "value": 111, "unit": "%"}, {"measurement": "Activity", "setting": "[19]", "value": 97, "unit": "%"}, {"measurement": "Activity", "setting": "[20]", "value": 97, "unit": "%"}, {"measurement": "Activity", "setting": "[21]", "value": 3, "unit": "%"}, {"measurement": "Activity", "setting": "[22]", "value": 97, "unit": "%"}, {"measurement": "Activity", "setting": "[23]", "value": 94, "unit": "%"}, {"measurement": "Activity", "setting": "[24]", "value": 82, "unit": "%"}, {"measurement": "IC50", "setting": "[25]", "value": "Not Active"}]}
